# Experimental data published in patent US10532082B2, “SOCS1-derived peptide for use in chronic complications of diabetes” (Fundació Hospital Universitari Vall d'Hebron-Institut de …, priority 2014, dated 2020).
# Where no end group is shown, it is not given here. [ ]: non-standard residue; d: D form. lysine‑palmitate = lysine-palmitate bound at the N-terminal end; pY = N[C@@H](Cc1ccc(OP(=O)(O)O)cc1)C(=O)O
# What was measured:
# [1] = test system: streptozotocin diabetic apoE-deficient mice; assay: Kidney histology (lesions, fibrosis, inflammatory infiltrate) in diabetic mice; assay type: in vivo; details: STZ apoE mice, i.p. 8 weeks
# Experimental: (§1) Apolipoprotein E (apoE)-deficient male mice of 8 weeks of age were made diabetic through streptozotocin injection (125 mg/kg weight in 10 mM citrate, pH 4.5, two consecutive days). After 2 weeks, animals with glycemia greater than 350 mg/dL were randomly distributed in two groups (n=9 animals per group): treated animals (miS1 peptide: 65 μg/day, 200 μL, intraperitoneally, every 2 days for 8 weeks) and controls (vehicle). The weight and glycemia (colorimetric assay) were controlled throughout the study period.
# (§2) At the end of the study, the anesthetized animals were perfused with saline and sacrificed, processing the tissues immediately. In renal cortex (paraffin sections, 5 μm) the glomerular and tubulointerstitial morphology was studied by means of PAS and Masson trichrome staining and the lesions were evaluated in a double-blind and semi-quantitative manner in a scale of 0-3. Renal fibrosis was determined by means of Picro-Sirius red staining and the infiltrating inflammatory cells (F4/80+ macrophages and CD3+ T-lymphocytes) by immunohistochemistry. In the aorta, the root/arch zone (serial cryosections of 8 μm from the valves to an extension of 1000 μm) was stained with Oil-red-O/hematoxylin and the area of the atherosclerotic lesion was quantified (Metamorph program). Plaque stability was assessed by collagen fiber staining with Picro-Sirius red and α-actin immunofluorescence. The inflammatory component was determined by means of immunohistochemistry for monocyte/macrophages (Moma2). The Image Pro-Plus program was used for quantifying positive stainings. The biochemical parameters in serum (glycated hemoglobin, cholesterol and creatinine) and in urine (albumin and creatinine) were determined by means of conventional commercial kits.
# diabetic mice (db/db) = assay: Retinal apoptosis by TUNEL, topical eye drops; assay type: in vivo
# Experimental: 8-week old diabetic mice (db/db) received the miS1 peptide in the form of eye drops (5 μL drops in each eye; 10 mg/mL; twice a day for 15 days; n=7 mice). Diabetic mice treated with the non-functional peptide Mut (n=7), treated with vehicle and non-diabetic mice (db/+) were used as controls. The eye drops were directly administered on the upper surface of the cornea of each eye using a micropipette. The weight and glycemia (colorimetric assay) were controlled throughout the study period. On day 15, the drop with the miS1 peptide or vehicle was administered about two hours before autopsy. The animals were euthanized by cervical dislocation and the enucleated eyes were immediately frozen and dorsoventral sections of […] were cut for analyzing retinal morphology and other immunohistochemical analyses.
# Glial activation was evaluated by means of GFAP (Glial fibrillar acidic protein) immunofluorescence following the methodology described in other studies (Bogdanov et al. PLoS One. 2014; 9:e97302). The fixed sections were blocked (1% BSA and 10% goat serum in PBS, 2 hours at RT) and incubated with anti-GFAP antibodies (dilution 1:500, 16 hours at 4° C.) followed by a secondary antibody (Alexa 488-conjugated goat anti-rabbit, dilution 1:200). […] The images of diabetic and control samples were taken with identical parameters and the topographic distribution of the GFAP labelling was analyzed in a scale of 0 to 5 (Anderson et al. Clin Ophthalmol 2008; 2(4):801-16). […] Apoptosis was determined by means of TUNEL (Terminal Transferase dUTP Nick-EndLabeling; fluorescence kit) immunohistochemistry using the previously described method (Bogdanov et al. PLoS One. 2014; 9:e97302) and subsequent quantification under a fluorescence microscope. […] The apoptotic cells were identified using green fluorescence [[…] goat-anti-rabbit (Invitrogen) (dilution 1:200 prepared in PBS)]. An excitation wavelength in the interval of 450-565 nm (e.g., 488 nm) was used for evaluation using fluorescence microscopy and the interval of 515-565 nm (green) was used for detection. […]
# RAW264.7 macrophages = assay: Cytokine-induced CCL2 production in macrophages (ELISA); assay type: cell-based, murine; details: pre-incubation with peptide, IFNγ and IL-6
# Experimental: RAW264.7 macrophages and vascular smooth muscle cells (VSMC) cultured in a medium with 10% fetal bovine serum were used. The cells were synchronized (24 hours without serum), pre-incubated for 90 minutes with different peptide concentrations (miS1 or the control thereof, 50-150 μg/mL) and stimulated with cytokines (IFNγ […]). STAT activation was analyzed by means of Western blot for phosphorylated STAT1/STAT3 isoforms. JAK/STAT pathway-dependent chemokine (CCL2) expression was determined by means of ELISA. Cell viability was analyzed by MTT colorimetric assay and macrophage migration was analyzed by chemotaxis assay.
# [2] = test system: streptozotocin diabetic apoE-deficient mice; assay: Atheromatous plaque size and composition in aorta of diabetic mice; assay type: in vivo; details: STZ apoE mice, i.p.
# Experimental: as §1, §2
# [3] = eye drops 50 μg in 5 μL/eye twice a day, 15 days
substance,measurement,setting,value
"miS1: SEQ ID NO 1 DTHFRTFRSHSDYRRI, kinase inhibitory region of murine SOCS1, bound to lysine-palmitate at the N-terminal end, tyrosine phosphorylated ({lysine‑palmitate}-DTHFRTFRSHSD[pY]RRI)",inflammatory lymphocyte and macrophage infiltrate in kidney,[1],significantly reduced
same,tubulointerstitial fibrosis,[1],significantly reduced
same,"glomerular lesions (hypercellularity, mesangial expansion and glomerular hypertrophy)",[1]; vs vehicle,improvement
same,"tubulointerstitial lesions (atrophy, degeneration and infiltrate)",[1]; vs vehicle,improvement
same,apoptosis rate (TUNEL) vs diabetic mice treated with vehicle,diabetic mice (db/db); [3],significantly lower apoptosis rate
same,percentage of apoptotic cells vs non-diabetic mice,diabetic mice (db/db); [3],No differences
same,reduction of apoptosis,"diabetic mice (db/db); eye drops 15 days, compared with groups that received Mut peptide or vehicle",about 80%
same,reduction of cytokine-induced CCL2 production,RAW264.7 macrophages,30-40%
same,reduction in the size and extension of atheromatous lesions,"[2]; Oil-red-O/hematoxylin, compared with the control group that received the vehicle",50%
same,collagen and vascular cells content of plaques,[2]; plaque composition,higher
same,number of macrophages in the atherosclerotic lesions,[2]; plaque composition,reduction
